Assays:
giant foxtail = assay: Test B pre/postemergence giant foxtail; type: in vivo, Setaria faberii; conditions: for Giant foxtail plant response rating: scale of 0 to 10 where 0 is no effect and 10 is complete control
How it was run: (§1)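 Herbicidal effect was estimated by eye on a ten-point control scale after plants spent twelve to sixteen days in a greenhouse following soil or foliar treatment. Foliar sprays targeted plants at one to four leaves; all doses were formulated in a non-phytotoxic solvent with surfactant.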

bedstraw = assay: Test B pre/postemergence bedstraw; type: in vivo, Galium aparine
How it was run: as §1

cocklebur = assay: Test B pre/postemergence cocklebur; type: in vivo, Xanthium strumarium; conditions: for Cocklebur plant response rating: scale of 0 to 10 where 0 is no effect and 10 is complete control
How it was run: as §1

wild oat = assay: Test B pre/postemergence wild oat; type: in vivo, Avena fatua; conditions: for Wild oats plant response rating: scale of 0 to 10 where 0 is no effect and 10 is complete control
How it was run: as §1

surinam grass = assay: Test B pre/postemergence surinam grass; type: in vivo, Brachiaria decumbens; conditions: for B. signalgrass plant response rating: scale of 0 to 10 where 0 is no effect and 10 is complete control
How it was run: as §1

morningglory = assay: Test B pre/postemergence morningglory; type: in vivo, Ipomoea hederacea; conditions: for Morningglory plant response rating: scale of 0 to 10 where 0 is no effect and 10 is complete control
How it was run: as §1

purple nutsedge = assay: Test B pre/postemergence purple nutsedge; type: in vivo, Cyperus rotundus; conditions: for Nutsedge plant response rating: scale of 0 to 10 where 0 is no effect and 10 is complete control
How it was run: as §1

blackgrass = assay: Test B pre/postemergence blackgrass; type: in vivo, Alopecurus myosuroides; conditions: for Blackgrass plant response rating: scale of 0 to 10 where 0 is no effect and 10 is complete control
How it was run: as §1

duck salad = assay: Test B flood test duck salad; type: in vivo, Heteranthera limosa
How it was run: (§2)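 Read-out is a visual response score from 0 (no effect) to 10 (complete control), assigned by comparison with untreated controls. Treatment was applied at the 2-leaf stage, and plants stayed in the greenhouse for twelve to sixteen days before scoring.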

wheat = assay: Test B pre/postemergence wheat; type: in vivo, Triticum aestivum; conditions: for Wheat plant response rating: scale of 0 to 10 where 0 is no effect and 10 is complete control
How it was run: as §1

sugar beet = assay: Test B pre/postemergence sugar beet; type: in vivo, Beta vulgaris; conditions: for Sugarbeets plant response rating: scale of 0 to 10 where 0 is no effect and 10 is complete control
How it was run: as §1

crabgrass = assay: Test B pre/postemergence crabgrass; type: in vivo, Digitaria sanguinalis; conditions: for Crabgrass plant response rating: scale of 0 to 10 where 0 is no effect and 10 is complete control
How it was run: as §1

bamyardgrass = assay: Test B flood test barnyardgrass; type: in vivo, Echinochloa crus-galli
How it was run: as §2

velvetleaf = assay: Test B pre/postemergence velvetleaf; type: in vivo, Abutilon theophrasti; conditions: for Velvetleaf plant response rating: scale of 0 to 10 where 0 is no effect and 10 is complete control
How it was run: as §1

rice = assay: Test B flood test rice; type: in vivo, Oryza sativa
How it was run: as §2

pigweed = assay: Test B pre/postemergence pigweed; type: in vivo, Amaranthus retroflexus; conditions: for Redroot pigweed plant response rating: scale of 0 to 10 where 0 is no effect and 10 is complete control
How it was run: as §1

[1] = Postemergence, Rate 125 g/ha, scale 0 to 10, 0 is no effect, 10 is complete control
[2] = Postemergence, Rate 250 g/ha, scale 0 to 10, 0 is no effect, 10 is complete control
[3] = Preemergence, Rate 62 g/ha, scale 0 to 10 (0 no effect, 10 complete control)
[4] = Rate 500 g/ha, Postemergence, scale 0 to 10, 0 no effect, 10 complete control
[5] = Rate 62 g/ha, flood test species, Pre-emergence, visual evaluation after twelve to sixteen days
[6] = Rate 125 g/ha, under heading Pre-emergence, flood test species, visual evaluation after twelve to sixteen days
[7] = Rate 250 g/ha, Pre-emergence, flood-test species, scale 0 to 10, 0 is no effect, 10 is complete control
[8] = Rate 500 g/ha, Pre-emergence, flood test species, scale 0 to 10 (0 no effect, 10 complete control)

With CC(C)N(C(=O)n1oc(=O)n(N2C(C)CCCC2C)c1=O)c1ccc(F)cc1F (stereo not shown) [Compound 383] the “Plant response rating, Giant foxtail” value (giant foxtail; [1]) was 0, the “Plant response rating, Giant foxtail” value (giant foxtail; [2]) was 6 and the “Plant response rating, Giant foxtail” value (giant foxtail; [3]) was 0. The “Giant foxtail plant response rating (0 to 10 scale)” value (giant foxtail; Preemergence, Rate 125 g/ha) was 7, the “Giant foxtail plant response rating” value (giant foxtail; Preemergence, Rate 250 g/ha) was 10 and the “Giant foxtail plant response rating” value (giant foxtail; Preemergence, Rate 500 g/ha) was 10. For the same compound, the “Giant foxtail plant response rating” value (giant foxtail; Rate 62 g/ha, Postemergence) was 0, the “Plant response rating, Giant foxtail” value (giant foxtail; [4]) was 6 and the “Plant response rating, Bedstraw” value (bedstraw; [1]) was 0. For the same compound, the “Plant response rating, Bedstraw” value (bedstraw; [2]) was 0, the “Plant response rating, Bedstraw” value (bedstraw; [3]) was 0 and the “Plant response rating, Bedstraw” value (bedstraw; [4]) was 0. The “Plant response rating, Cocklebur” value (cocklebur; [1]) was 0, the “Plant response rating, Cocklebur” value (cocklebur; [2]) was 0 and the “Plant response rating, Cocklebur” value (cocklebur; [3]) was 0. For the same compound, the “Cocklebur plant response rating (0 to 10 scale)” value (cocklebur; Preemergence, Rate 125 g/ha) was 0, the “Cocklebur plant response rating” value (cocklebur; Preemergence, Rate 250 g/ha) was 0 and the “Cocklebur plant response rating” value (cocklebur; Preemergence, Rate 500 g/ha) was 0. The “Cocklebur plant response rating” value (cocklebur; Rate 62 g/ha, Postemergence) was 0, the “Plant response rating, Cocklebur” value (cocklebur; [4]) was 0 and the “Plant response rating, Wild oats” value (wild oat; [1]) was 0. The “Plant response rating, Wild oats” value (wild oat; [2]) was 0, the “Plant response rating, Wild oats” value (wild oat; [3]) was 0 and the “Wild oats plant response rating (0 to 10 scale)” value (wild oat; Preemergence, Rate 125 g/ha) was 0. The “Wild oats plant response rating” value (wild oat; Preemergence, Rate 250 g/ha) was 0, the “Wild oats plant response rating” value (wild oat; Preemergence, Rate 500 g/ha) was 0 and the “Wild oats plant response rating” value (wild oat; Rate 62 g/ha, Postemergence) was 0. For the same compound, the “Plant response rating, Wild oats” value (wild oat; [4]) was 0, the “Plant response rating, B. signalgrass” value (surinam grass; [1]) was 0 and the “Plant response rating, B. signalgrass” value (surinam grass; [2]) was 0. The “Plant response rating, B. signalgrass” value (surinam grass; [3]) was 0, the “B. signalgrass plant response rating (0 to 10 scale, 0 is no effect, 10 is complete control)” value (surinam grass; Preemergence, Rate 125 g/ha) was 0 and the “B. signalgrass plant response rating” value (surinam grass; Preemergence, Rate 250 g/ha) was 0. For the same compound, the “B. signalgrass plant response rating” value (surinam grass; Preemergence, Rate 500 g/ha) was 6, the “B. signalgrass plant response rating” value (surinam grass; Rate 62 g/ha, Postemergence) was 0 and the “Plant response rating, B. signalgrass” value (surinam grass; [4]) was 0. The “Plant response rating, Morningglory” value (morningglory; [1]) was 0, the “Plant response rating, Morningglory” value (morningglory; [2]) was 0 and the “Plant response rating, Morningglory” value (morningglory; [3]) was 0. For the same compound, the “Morningglory plant response rating (0 to 10 scale)” value (morningglory; Preemergence, Rate 125 g/ha) was 0, the “Morningglory plant response rating” value (morningglory; Preemergence, Rate 250 g/ha) was 0 and the “Morningglory plant response rating” value (morningglory; Preemergence, Rate 500 g/ha) was 0. The “Morningglory plant response rating” value (morningglory; Rate 62 g/ha, Postemergence) was 0, the “Plant response rating, Morningglory” value (morningglory; [4]) was 0 and the “Plant response rating, Nutsedge” value (purple nutsedge; [1]) was 0. The “Plant response rating, Nutsedge” value (purple nutsedge; [2]) was 0, the “Plant response rating, Nutsedge” value (purple nutsedge; [3]) was 0 and the “Nutsedge plant response rating (0 to 10 scale)” value (purple nutsedge; Preemergence, Rate 125 g/ha) was 0. For the same compound, the “Nutsedge plant response rating” value (purple nutsedge; Preemergence, Rate 250 g/ha) was 0, the “Nutsedge plant response rating” value (purple nutsedge; Preemergence, Rate 500 g/ha) was 0 and the “Nutsedge plant response rating” value (purple nutsedge; Rate 62 g/ha, Postemergence) was 0. The “Plant response rating, Nutsedge” value (purple nutsedge; [4]) was 0, the “Plant response rating, Blackgrass” value (blackgrass; [1]) was 0 and the “Plant response rating, Blackgrass” value (blackgrass; [2]) was 2. For the same compound, the “Plant response rating, Blackgrass” value (blackgrass; [3]) was 0, the “Blackgrass plant response rating (0 to 10 scale)” value (blackgrass; Preemergence, Rate 125 g/ha) was 0 and the “Blackgrass plant response rating” value (blackgrass; Preemergence, Rate 250 g/ha) was 2. The “Blackgrass plant response rating” value (blackgrass; Preemergence, Rate 500 g/ha) was 7, the “Blackgrass plant response rating” value (blackgrass; Rate 62 g/ha, Postemergence) was 0 and the “Plant response rating, Blackgrass” value (blackgrass; [4]) was 8. The “Plant response rating, Ducksalad (0 to 10 scale, 0 is no effect, 10 is complete control)” value (duck salad; [5]) was 0, the “Ducksalad plant response rating (0 to 10 scale, 0 is no effect, 10 is complete control)” value (duck salad; [6]) was 0 and the “Ducksalad plant response rating” value (duck salad; [7]) was 0. The “Ducksalad plant response rating” value (duck salad; [8]) was 0, the “Plant response rating, Wheat” value (wheat; [1]) was 0 and the “Plant response rating, Wheat” value (wheat; [2]) was 0. For the same compound, the “Plant response rating, Wheat” value (wheat; [3]) was 0, the “Wheat plant response rating (0 to 10 scale)” value (wheat; Preemergence, Rate 125 g/ha) was 0 and the “Wheat plant response rating” value (wheat; Preemergence, Rate 250 g/ha) was 0. The “Wheat plant response rating” value (wheat; Preemergence, Rate 500 g/ha) was 0, the “Wheat plant response rating” value (wheat; Rate 62 g/ha, Postemergence) was 0 and the “Plant response rating, Wheat” value (wheat; [4]) was 0. The “Plant response rating, Sugarbeets” value (sugar beet; [1]) was 0, the “Plant response rating, Sugarbeets” value (sugar beet; [2]) was 0 and the “Plant response rating, Sugarbeets” value (sugar beet; [3]) was 0. For the same compound, the “Sugarbeets plant response rating (0 to 10 scale)” value (sugar beet; Preemergence, Rate 125 g/ha) was 0, the “Sugarbeets plant response rating” value (sugar beet; Preemergence, Rate 250 g/ha) was 0 and the “Sugarbeets plant response rating” value (sugar beet; Preemergence, Rate 500 g/ha) was 0. For the same compound, the “Sugarbeets plant response rating” value (sugar beet; Rate 62 g/ha, Postemergence) was 0, the “Plant response rating, Sugarbeets” value (sugar beet; [4]) was 0 and the “Plant response rating, Crabgrass” value (crabgrass; [1]) was 1. The “Plant response rating, Crabgrass” value (crabgrass; [2]) was 4, the “Plant response rating, Crabgrass” value (crabgrass; [3]) was 6 and the “Crabgrass plant response rating (0 to 10 scale)” value (crabgrass; Preemergence, Rate 125 g/ha) was 8. The “Crabgrass plant response rating” value (crabgrass; Preemergence, Rate 250 g/ha) was 9, the “Crabgrass plant response rating” value (crabgrass; Preemergence, Rate 500 g/ha) was 10 and the “Crabgrass plant response rating” value (crabgrass; Rate 62 g/ha, Postemergence) was 0. For the same compound, the “Plant response rating, Crabgrass” value (crabgrass; [4]) was 4, the “Plant response rating, Barnyardgrass (0 to 10 scale, 0 is no effect, 10 is complete control)” value (bamyardgrass; [5]) was 0 and the “Barnyardgrass plant response rating (0 to 10 scale, 0 is no effect, 10 is complete control)” value (bamyardgrass; [6]) was 0. For the same compound, the “Barnyardgrass plant response rating” value (bamyardgrass; [7]) was 0, the “Barnyardgrass plant response rating” value (bamyardgrass; [8]) was 0 and the “Plant response rating, Velvetleaf” value (velvetleaf; [1]) was 0. The “Plant response rating, Velvetleaf” value (velvetleaf; [2]) was 0, the “Plant response rating, Velvetleaf” value (velvetleaf; [3]) was 0 and the “Velvetleaf plant response rating (0 to 10 scale)” value (velvetleaf; Preemergence, Rate 125 g/ha) was 0. The “Velvetleaf plant response rating” value (velvetleaf; Preemergence, Rate 250 g/ha) was 0, the “Velvetleaf plant response rating” value (velvetleaf; Preemergence, Rate 500 g/ha) was 0 and the “Velvetleaf plant response rating” value (velvetleaf; Rate 62 g/ha, Postemergence) was 0. For the same compound, the “Plant response rating, Velvetleaf” value (velvetleaf; [4]) was 0, the “Plant response rating, Rice (0 to 10 scale, 0 is no effect, 10 is complete control)” value (rice; [5]) was 0 and the “Rice plant response rating (0 to 10 scale, 0 is no effect, 10 is complete control)” value (rice; [6]) was 0. For the same compound, the “Rice plant response rating” value (rice; [7]) was 0, the “Rice plant response rating” value (rice; [8]) was 0 and the “Plant response rating, Redroot pigweed” value (pigweed; [1]) was 0. The “Plant response rating, Redroot pigweed” value (pigweed; [2]) was 0, the “Plant response rating, Redroot pigweed” value (pigweed; [3]) was 0 and the “Redroot pigweed plant response rating (0 to 10 scale)” value (pigweed; Preemergence, Rate 125 g/ha) was 0. For the same compound, the “Redroot pigweed plant response rating” value (pigweed; Preemergence, Rate 250 g/ha) was 0, the “Redroot pigweed plant response rating” value (pigweed; Preemergence, Rate 500 g/ha) was 3 and the “Redroot pigweed plant response rating” value (pigweed; Rate 62 g/ha, Postemergence) was 0. For the same compound, the “Plant response rating, Redroot pigweed” value (pigweed; [4]) was 0.

Source: patent publication US6737383B1, “Herbicidal oxadiazolidines” (priority 1999, dated 2004)
